Measurements: US6759236B1, “Methods to enhance and confine expression of genes” (Research Development Foundation, priority 1998, dated 2004)

Legend:
[1] = cited from earlier work
[2] = system: H358 lung carcinoma cell line; experiment: Heat inducible, tetracycline feed-forward amplification of p53 expression (p53 immunostaining); type: cell-based; details: 0.1 μg/ml added 6 hours after heating (45° C., 20 min); reached in 10 hours; cells cotransfected with ptet-splice p53 wt and HSP-tetp-TET-ON
Protocol: Six hours after heat shock, transfected cells were treated with different doses of doxycycline. At various time points after the addition of doxycycline, the cells were stained with a p53 antibody. For each point, the digital images of fifty immunostained cells were captured using a Nikon microscope. […] The plasmid “HSP-tetp-TET-ON” was constructed by replacing the CMV promoter in ptet-on (Clontech) with 300 bp of the human heat shock protein promoter and the tetp promoter. H358, a non-small cell lung carcinoma cell line with a homozygous deletion of p53, was grown in RPMI+10% fetal calf serum. 10^7 exponentially growing cells were cotransfected with 50 μg of “ptet-splice p53 wt” and 10 μg of “HSP-tetp-TET-ON” by electroporation using a BRL cell-Porator at 1180 μF and 240 V in 0.8 ml RPMI+6 mM glucose. Transfected cells were plated out at 25% confluence for 36 hours and then half of them were heat-shocked at 45° C. for twenty minutes. Six hours after heat shock, cells were treated with different doses of doxycycline. […] The amount of protein expressed in each cell is proportional to the intensity of staining which was expressed as I=1/T, where T is a measure of the transmitted light/unit area.

In the case of `C[C@H]1c2cccc(O)c2C(=O)C2=C(O)[C@]3(O)C(=O)C(C(N)=O)=C(O)[C@@H](N(C)C)[C@@H]3[C@@H](O)[C@@H]21` [doxycycline], the in vivo half-life ([1]; in vivo) is listed as 18 h and the “amplification of p53” value [2] is listed as “more than 12 fold”.

For `CN(C)[C@@H]1C(O)=C(C(N)=O)C(=O)[C@@]2(O)C(O)=C3C(=O)c4c(O)cccc4[C@@](C)(O)[C@H]3[C@H](O)[C@@H]12` [oxytetracycline], the “level at the end of 24 hours” value ([1]; end of 24 hours) is given as < 25 % of input, the “time at which peak plasma concentration is reached” value ([1]; humans, single oral dose) is given as 2 to 4 h and the “fraction removed via the kidney” value ([1]; humans) is given as 10-35%. For the same molecule, the “fraction never absorbed and excreted in the active form” value ([1]; in vivo) was 10-30% and the in vivo half-life ([1]; in vivo) was 9 h.
